ChEMBL document CHEMBL3865816, “Design, synthesis and biological evaluation of novel azaspiro analogs of linezolid as antibacterial and antitubercular agents” (Eur J Med Chem, 2016)
Converted amounts (≈) assume the structure as drawn.

Columns and labels:
Assay type in all cases: functional
Pseudomonas aeruginosa [1] = assay: Antibacterial activity against Pseudomonas aeruginosa NCIM 2036 measured after 8 hrs by spectrophotometric method; conditions: NCIM 2036, 8 h
[2] = test system: Mycobacterium tuberculosis; assay: Antitubercular activity against dormant stage Mycobacterium tuberculosis H37Ra at 30 ug/ml measured after 12 days by XTT assay; conditions: 288 h
Escherichia coli [3] = assay: Antibacterial activity against Escherichia coli NCIM 2688 measured after 8 hrs by spectrophotometric method; conditions: NCIM 2688, 8 h
Staphylococcus aureus [4] = assay: Antibacterial activity against Staphylococcus aureus NCIM 2079 at 30 ug/ml measured after 12 hrs by spectrophotometric method; conditions: NCIM 2079, 12 h
Escherichia coli [5] = assay: Antibacterial activity against Escherichia coli NCIM 2688 at 30 ug/ml measured after 8 hrs by spectrophotometric method; conditions: NCIM 2688, 8 h
[6] = test system: Mycobacterium tuberculosis; assay: Antitubercular activity against dormant stage Mycobacterium tuberculosis H37Ra measured after 12 days by XTT assay; conditions: 288 h
[7] = test system: Mycobacterium tuberculosis; assay: Antitubercular activity against dormant stage Mycobacterium tuberculosis H37Ra at 3 ug/ml measured after 12 days by XTT assay; conditions: 288 h
Bacillus subtilis [8] = assay: Antibacterial activity against Bacillus subtilis NCIM 2010 at 30 ug/ml measured after 12 hrs by spectrophotometric method; conditions: NCIM 2010, 12 h
Staphylococcus aureus [9] = assay: Antibacterial activity against Staphylococcus aureus NCIM 2079 at 3 ug/ml measured after 12 hrs by spectrophotometric method; conditions: NCIM 2079, 12 h
Escherichia coli [10] = assay: Antibacterial activity against Escherichia coli NCIM 2688 at 10 ug/ml measured after 8 hrs by spectrophotometric method; conditions: NCIM 2688, 8 h
Staphylococcus aureus [11] = assay: Antibacterial activity against Staphylococcus aureus NCIM 2079 measured after 12 hrs by spectrophotometric method; conditions: NCIM 2079, 12 h
Escherichia coli [12] = assay: Antibacterial activity against Escherichia coli NCIM 2688 at 3 ug/ml measured after 8 hrs by spectrophotometric method; conditions: NCIM 2688, 8 h
Pseudomonas aeruginosa [13] = assay: Antibacterial activity against Pseudomonas aeruginosa NCIM 2036 at 3 ug/ml measured after 8 hrs by spectrophotometric method; conditions: NCIM 2036, 8 h
Bacillus subtilis [14] = assay: Antibacterial activity against Bacillus subtilis NCIM 2010 at 10 ug/ml measured after 12 hrs by spectrophotometric method; conditions: NCIM 2010, 12 h
Bacillus subtilis [15] = assay: Antibacterial activity against Bacillus subtilis NCIM 2010 measured after 12 hrs by spectrophotometric method; conditions: NCIM 2010, 12 h
[16] = test system: Mycobacterium tuberculosis; assay: Antitubercular activity against dormant stage Mycobacterium tuberculosis H37Ra at 10 ug/ml measured after 12 days by XTT assay; conditions: 288 h
Pseudomonas aeruginosa [17] = assay: Antibacterial activity against Pseudomonas aeruginosa NCIM 2036 at 10 ug/ml measured after 8 hrs by spectrophotometric method; conditions: NCIM 2036, 8 h
[18] = test system: Mycobacterium tuberculosis; assay: Antitubercular activity against active stage Mycobacterium tuberculosis H37Ra measured after 8 days by XTT assay; conditions: 192 h
Bacillus subtilis [19] = assay: Antibacterial activity against Bacillus subtilis NCIM 2010 at 3 ug/ml measured after 12 hrs by spectrophotometric method; conditions: NCIM 2010, 12 h
Pseudomonas aeruginosa [20] = assay: Antibacterial activity against Pseudomonas aeruginosa NCIM 2036 at 30 ug/ml measured after 8 hrs by spectrophotometric method; conditions: NCIM 2036, 8 h
Staphylococcus aureus [21] = assay: Antibacterial activity against Staphylococcus aureus NCIM 2079 at 10 ug/ml measured after 12 hrs by spectrophotometric method; conditions: NCIM 2079, 12 h

O=C1O[C@@H](CNC(=S)Nc2ccccc2F)CN1c1ccc(N2CC3(COC3)C2)c(F)c1
IC50 (Pseudomonas aeruginosa [1]): 0.98 µg/mL (≈ 2.13 µM)
MIC (Pseudomonas aeruginosa [1]): 15.9 µg/mL (≈ 34.5 µM)
inhibition at 30 µg/mL [2]: 87.6%
IC50 (Escherichia coli [3]): > 100 µg/mL
MIC (Escherichia coli [3]): > 100 µg/mL
inhibition at 30 µg/mL (Staphylococcus aureus [4]): 99.3%
inhibition at 30 µg/mL (Escherichia coli [5]): 51.9%
IC50 [6]: 22.8 µg/mL (≈ 49.6 µM)
MIC [6]: 41.6 µg/mL (≈ 90.4 µM)
inhibition at 3 µg/mL [7]: 25.1%
inhibition at 30 µg/mL (Bacillus subtilis [8]): 101%
inhibition at 3 µg/mL (Staphylococcus aureus [9]): 85.9%
inhibition at 10 µg/mL (Escherichia coli [10]): 42.8%
IC50 (Staphylococcus aureus [11]): 0.6 µg/mL (≈ 1.3 µM)
MIC (Staphylococcus aureus [11]): 5.76 µg/mL (≈ 12.5 µM)
inhibition at 3 µg/mL (Escherichia coli [12]): 25%
inhibition at 3 µg/mL (Pseudomonas aeruginosa [13]): 77.8%
inhibition at 10 µg/mL (Bacillus subtilis [14]): 96.6%
IC50 (Bacillus subtilis [15]): 1.31 µg/mL (≈ 2.84 µM)
MIC (Bacillus subtilis [15]): 5.18 µg/mL (≈ 11.2 µM)
inhibition at 10 µg/mL [16]: 57.4%
inhibition at 10 µg/mL (Pseudomonas aeruginosa [17]): 87.4%
IC50 [18]: 16.3 µg/mL (≈ 35.5 µM)
MIC [18]: 41.1 µg/mL (≈ 89.3 µM)
inhibition at 3 µg/mL (Bacillus subtilis [19]): 81%
inhibition at 30 µg/mL (Pseudomonas aeruginosa [20]): 96%
inhibition at 10 µg/mL (Staphylococcus aureus [21]): 95.7%
